{"source": "patent US12404289B2", "about": "(Gilead Sciences, Inc., priority 2020, dated 2025)", "format_in_all_cases": "cell-based", "key": {"[1]": {"test_system": "SARS-CoV-2", "assay": "SARS-CoV-2 antiviral assay (A549-hACE2, Nano luciferase)", "settings": "Severe acute respiratory syndrome coronavirus 2, 48 h, A549-hACE2 cells, SARS-CoV2-Nano, MOI 0.025, 48 h"}, "[2]": {"test_system": "Respiratory syncytial virus (RSV) strain A2", "assay": "RSV antiviral assay (HEp-2, 96 well)", "settings": "human respiratory syncytial virus"}, "[3]": {"assay": "CC50 assay (cytopathology in HEp-2 cells)", "settings": "human", "description": "The cytopathology of compounds in HEp-2 cells is determined in the following manner. HEp-2 cells are suspended in DMEM+GlutaMAX (supplemented with 10% FBS and 1% Penicillin/Streptomycin) and seeded into 96 well plates (3×10^3/well). After a 4-hour incubation at 37° C.+5% CO2, three-fold serial dilutions of compounds are added to each well using an HP D300e digital dispenser. The cells are then incubated for 4 days at 37° C. and 5% CO2. The final volume in each well is 200 μL. Untreated wells are included as controls for 100% cell viability, while compounds treated with 5 uM puromycin are included as controls for 0% viability. Following the incubation, 100 μL of culture supernatant is removed from each well and replaced with 100 μL of CellTiter-Glo reagent (Promega, Madison, WI, Cat #G7573). The plates are then rocked for 2 minutes followed by a 10-minute incubation at 25° C. Compound-induced cytopathic effect is then assessed by measuring luminescence signal using and Envision plate reader. Values are normalized to the untreated DMSO and puromycin-treated controls (as 100% and 0% viability, respectively) and data is fit using non-linear regression analysis using XLfit4. The CC50 value for each compound is then determined as the concentration reducing cell viability by 50%."}, "[4]": {"settings": "Table 1, read-out: SARS-CoV-2 EC50"}, "[5]": {"settings": "Table 4, read-out: EC50 SARS CoV2"}, "[6]": {"settings": "HEp-2, 96 h, read-out: EC50-RSV-HEP-2-96, HEp-2 cells, RSV A2, MOI=4, 4 days, 96 well, CellTiter-Glo, Table 1"}, "[7]": {"settings": "HEp-2 cells, 4 days, CellTiter-Glo, Table 1, read-out: RSV CC50"}}, "note": "Like-named read-outs stand apart in the source and are kept apart here.", "data": [{"smiles": "COC(C)(C)COC(=O)[C@H](C)NP(=O)(OC[C@H]1O[C@@](C#N)(c2ccc3c(N)ncnn23)[C@H](OC(=O)C(C)C)[C@@H]1OC(=O)C(C)C)Oc1ccccc1", "note": "(stereo partly drawn) [Example 25, (2R,3R,4R,5R)-2-(4-aminopyrrolo[2,1-f][1,2,4]triazin-7-yl)-2-cyano-5-((((((S)-1-(2-methoxy-2-methylpropoxy)-1-oxopropan-2-yl)amino)(phenoxy)phosphoryl)oxy)methyl)tetrahydrofuran-3,4-diyl bis(2-methylpropanoate)]", "values": [{"measurement": "EC50", "setting": "[1]; [4]", "result": 122, "unit": "nM"}, {"measurement": "EC50", "setting": "[1]; [5]", "result": 350, "unit": "nM"}, {"measurement": "EC50", "setting": "[2]; [6]", "result": 11.1, "unit": "nM"}, {"measurement": "CC50 at 4 days", "setting": "[3]; [7]", "result": 4780, "unit": "nM"}]}, {"smiles": "CCC(CC)COC(=O)[C@H](C)N[P@](=O)(OC[C@H]1O[C@@](C#N)(c2ccc3c(N)ncnn23)[C@H](O)[C@@H]1O)Oc1ccccc1", "values": [{"measurement": "EC50", "setting": "[1]; Table 2, read-out: SARS-CoV-2 EC50", "result": 110, "unit": "nM"}, {"measurement": "EC50", "setting": "[2]; 96 h, HEp-2 cells, RSV A2, MOI=4, 4 days, 96 well, Table 2, read-out: EC50-RSV-HEP-2-96", "result": 14.9, "unit": "nM"}, {"measurement": "CC50 at 4 days", "setting": "[3]", "result": 6080, "unit": "nM"}]}, {"smiles": "CCOC(=O)[C@H](C)NP(=O)(OC[C@H]1O[C@@](C#N)(c2ccc3c(N)ncnn23)[C@H](OC(=O)CC)[C@@H]1OC(=O)CC)Oc1ccccc1", "note": "(stereo partly drawn) [Example 11, (2R,3R,4R,5R)-2-(4-aminopyrrolo[2,1-f][1,2,4]triazin-7-yl)-2-cyano-5-((((((S)-1-ethoxy-1-oxopropan-2-yl)amino)(phenoxy)phosphoryl)oxy)methyl)tetrahydrofuran-3,4-diyl Dipropionate]", "values": [{"measurement": "EC50", "setting": "[1]; [4]", "result": 76.8, "unit": "nM"}, {"measurement": "EC50", "setting": "[1]; [5]", "result": 208, "unit": "nM"}, {"measurement": "EC50", "setting": "[2]; [6]", "result": 67.2, "unit": "nM"}, {"measurement": "CC50 at 4 days", "setting": "[3]; [7]", "result": 12800, "unit": "nM"}]}, {"smiles": "CCC(CC)COC(=O)[C@H](C)NP(=O)(OC[C@H]1O[C@@](C#N)(c2ccc3c(N)ncnn23)[C@H](OC(=O)C(C)C)[C@@H]1OC(=O)C(C)C)Oc1c(C)cccc1C", "note": "(stereo partly drawn) [Example 20, (2R,3R,4R,5R)-2-(4-aminopyrrolo[2,1-f][1,2,4]triazin-7-yl)-2-cyano-5-((((2,6-dimethylphenoxy)(((S)-1-(2-ethylbutoxy)-1-oxopropan-2-yl)amino)phosphoryl)oxy)methyl)tetrahydrofuran-3,4-diyl bis(2-methylpropanoate)]", "values": [{"measurement": "EC50", "setting": "[2]; [6]", "result": 444, "unit": "nM"}, {"measurement": "CC50 at 4 days", "setting": "[3]; [7]", "result": 5180, "unit": "nM"}]}, {"smiles": "CC(=O)O[C@H]1[C@@H](OC(C)=O)[C@](C#N)(c2ccc3c(N)ncnn23)O[C@@H]1CO[P@@](=O)(N[C@@H](C)C(=O)OC(C)C)Oc1ccccc1", "note": "[Example 9, (2R,3R,4R,5R)-2-(4-aminopyrrolo[2,1-f][1,2,4]triazin-7-yl)-2-cyano-5-((((S)—(((S)-1-isopropoxy-1-oxopropan-2-yl)amino)(phenoxy)phosphoryl)oxy)methyl) tetrahydrofuran-3,4-diyl Diacetate]", "values": [{"measurement": "EC50", "setting": "[2]; [6]", "result": 228, "unit": "nM"}, {"measurement": "CC50 at 4 days", "setting": "[3]; [7]", "result": "> 50000", "unit": "nM"}]}, {"smiles": "CCC(=O)O[C@H]1[C@@H](OC(=O)CC)[C@](C#N)(c2ccc3c(N)ncnn23)O[C@@H]1CO[P@@](=O)(N[C@@H](C)C(=O)OC(C)C)Oc1ccccc1", "note": "[Example 8, (2R,3R,4R,5R)-2-(4-aminopyrrolo[2,1-f][1,2,4]triazin-7-yl)-2-cyano-5-((((S)—(((S)-1-isopropoxy-1-oxopropan-2-yl)amino)(phenoxy)phosphoryl)oxy)methyl) tetrahydrofuran-3,4-diyl Dipropionate]", "values": [{"measurement": "EC50", "setting": "[2]; [6]", "result": 156, "unit": "nM"}, {"measurement": "CC50 at 4 days", "setting": "[3]; [7]", "result": "> 40000", "unit": "nM"}]}, {"smiles": "CCOC(=O)[C@H](C)NP(=O)(OC[C@H]1O[C@@](C#N)(c2ccc3c(N)ncnn23)[C@H](O)[C@@H]1O)Oc1ccc(C(C)(C)C)cc1", "note": "(stereo partly drawn) [Example 17, Ethyl ((((2R,3S,4R,5R)-5-(4-aminopyrrolo[2,1-f][1,2,4]triazin-7-yl)-5-cyano-3,4-dihydroxytetrahydrofuran-2-yl)methoxy)(4-(tert-butyl)phenoxy)phosphoryl)-L-alaninate]", "values": [{"measurement": "EC50", "setting": "[1]; [5]", "result": 850, "unit": "nM"}, {"measurement": "EC50", "setting": "[2]; [6]", "result": 164, "unit": "nM"}, {"measurement": "CC50 at 4 days", "setting": "[3]; [7]", "result": 20800, "unit": "nM"}]}, {"smiles": "COC(=O)[C@H](C)NP(=O)(OC[C@H]1O[C@@](C#N)(c2ccc3c(N)ncnn23)[C@H](O)[C@@H]1O)Oc1ccc(C(C)(C)C)cc1", "note": "(stereo partly drawn) [Example 15, Methyl ((((2R,3S,4R,5R)-5-(4-aminopyrrolo[2,1-f][1,2,4]triazin-7-yl)-5-cyano-3,4-dihydroxytetrahydrofuran-2-yl)methoxy)(4-(tert-butyl)phenoxy)phosphoryl)-L-alaninate]", "values": [{"measurement": "EC50", "setting": "[1]; [5]", "result": 777, "unit": "nM"}, {"measurement": "EC50", "setting": "[2]; [6]", "result": 185, "unit": "nM"}, {"measurement": "CC50 at 4 days", "setting": "[3]; [7]", "result": 22900, "unit": "nM"}]}, {"smiles": "CC(C)OC(=O)[C@H](C)N[P@](=O)(OC[C@H]1O[C@@](C#N)(c2ccc3c(N)ncnn23)[C@H](OC(=O)C(C)C)[C@@H]1OC(=O)C(C)C)Oc1ccccc1", "note": "[Example 7, (2R,3R,4R,5R)-2-(4-aminopyrrolo[2,1-f][1,2,4]triazin-7-yl)-2-cyano-5-((((S)—(((S)-1-isopropoxy-1-oxopropan-2-yl)amino)(phenoxy)phosphoryl)oxy)methyl) tetrahydrofuran-3,4-diyl bis(2-methylpropanoate)]", "values": [{"measurement": "EC50", "setting": "[1]; [4]", "result": 241, "unit": "nM"}, {"measurement": "EC50", "setting": "[1]; [5]", "result": 372, "unit": "nM"}, {"measurement": "EC50", "setting": "[2]; [6]", "result": 77.9, "unit": "nM"}, {"measurement": "CC50 at 4 days", "setting": "[3]; [7]", "result": 12600, "unit": "nM"}]}, {"smiles": "COC(=O)[C@H](C)NP(=O)(OC[C@H]1O[C@@](C#N)(c2ccc3c(N)ncnn23)[C@H](OC(=O)C(C)C)[C@@H]1OC(=O)C(C)C)Oc1ccc(C(C)(C)C)cc1", "note": "(stereo partly drawn) [Example 16, (2R,3R,4R,5R)-2-(4-aminopyrrolo[2,1-f][1,2,4]triazin-7-yl)-5-((((4-(tert-butyl)phenoxy)(((S)-1-methoxy-1-oxopropan-2-yl)amino)phosphoryl)oxy)methyl)-2-cyanotetrahydrofuran-3,4-diyl bis(2-methylpropanoate)]", "values": [{"measurement": "EC50", "setting": "[1]; [4]", "result": 83.8, "unit": "nM"}, {"measurement": "EC50", "setting": "[1]; [5]", "result": 199, "unit": "nM"}, {"measurement": "EC50", "setting": "[2]; [6]", "result": 9.3, "unit": "nM"}, {"measurement": "CC50 at 4 days", "setting": "[3]; [7]", "result": 2840, "unit": "nM"}]}, {"smiles": "CCOCCOCCOC(=O)[C@H](C)NP(=O)(OC[C@H]1O[C@@](C#N)(c2ccc3c(N)ncnn23)[C@H](O)[C@@H]1O)Oc1ccccc1", "note": "(stereo partly drawn) [Example 22, 2-(2-Ethoxyethoxy)ethyl ((((2R,3S,4R,5R)-5-(4-aminopyrrolo[2,1-f][1,2,4]triazin-7-yl)-5-cyano-3,4-dihydroxytetrahydrofuran-2-yl)methoxy)(phenoxy)phosphoryl)-L-alaninate]", "values": [{"measurement": "EC50", "setting": "[2]; [6]", "result": "> 4720", "unit": "nM"}, {"measurement": "CC50 at 4 days", "setting": "[3]; [7]", "result": "> 50000", "unit": "nM"}]}, {"smiles": "COC(=O)[C@H](C)N[P@](=O)(OC[C@H]1O[C@@](C#N)(c2ccc3c(N)ncnn23)[C@H](O)[C@@H]1O)Oc1ccccc1", "values": [{"measurement": "EC50", "setting": "[2]; HEp-2, 96 h, read-out: EC50-RSV-HEP-2-96, HEp-2 cells, RSV A2, MOI=4, 4 days, 96 well, Table 2", "result": 144, "unit": "nM"}, {"measurement": "CC50 at 4 days", "setting": "[3]; HEp-2 cells, 4 days, CellTiter-Glo, Table 2, read-out: RSV CC50", "result": 48500, "unit": "nM"}]}, {"smiles": "CCOC(=O)[C@H](C)NP(=O)(OC[C@H]1O[C@@](C#N)(c2ccc3c(N)ncnn23)[C@H](OC(C)=O)[C@@H]1OC(C)=O)Oc1ccccc1", "note": "(stereo partly drawn) [Example 12, (2R,3R,4R,5R)-2-(4-aminopyrrolo[2,1-f][1,2,4]triazin-7-yl)-2-cyano-5-((((((S)-1-ethoxy-1-oxopropan-2-yl)amino)(phenoxy)phosphoryl)oxy)methyl)tetrahydrofuran-3,4-diyl Diacetate]", "values": [{"measurement": "EC50", "setting": "[1]; [5]", "result": 139, "unit": "nM"}, {"measurement": "EC50", "setting": "[2]; [6]", "result": 166, "unit": "nM"}, {"measurement": "CC50 at 4 days", "setting": "[3]; [7]", "result": 30900, "unit": "nM"}]}, {"smiles": "CCC(=O)O[C@H]1[C@@H](OC(=O)CC)[C@](C#N)(c2ccc3c(N)ncnn23)O[C@@H]1CO[P@@](=O)(N[C@@H](C)C(=O)OC)Oc1ccccc1", "note": "[Example 5, (2R,3R,4R,5R)-2-(4-aminopyrrolo[2,1-f][1,2,4]triazin-7-yl)-2-cyano-5-((((S)—(((S)-1-methoxy-1-oxopropan-2-yl)amino)(phenoxy)phosphoryl)oxy)methyl) tetrahydrofuran-3,4-diyl Dipropionate]", "values": [{"measurement": "EC50", "setting": "[2]; [6]", "result": 109, "unit": "nM"}, {"measurement": "CC50 at 4 days", "setting": "[3]; [7]", "result": 9540, "unit": "nM"}]}, {"smiles": "CCOC(=O)[C@H](C)N[P@](=O)(OC[C@H]1O[C@@](C#N)(c2ccc3c(N)ncnn23)[C@H](OC(=O)C(C)C)[C@@H]1OC(=O)C(C)C)Oc1ccccc1", "note": "[Example 10, (2R,3R,4R,5R)-2-(4-aminopyrrolo[2,1-f][1,2,4]triazin-7-yl)-2-cyano-5-((((((S)-1-ethoxy-1-oxopropan-2-yl)amino)(phenoxy)phosphoryl)oxy)methyl)tetrahydrofuran-3,4-diyl bis(2-methylpropanoate)]", "values": [{"measurement": "EC50", "setting": "[2]; [6]", "result": 52.9, "unit": "nM"}, {"measurement": "CC50 at 4 days", "setting": "[3]; [7]", "result": 10300, "unit": "nM"}]}]}
